Experimental data as given in patent US9592223B2, “Small molecule inhibitors of MALT1” (Cornell University, priority 2012, dated 2017).

Key:
[1] = test system: MALT1 dependent ABC-DLBCL cells HBL-1, TMD8, OCI-Ly3 and OCI-Ly10; experiment: Growth inhibition, MALT1 dependent cell lines; format: cell-based, human; settings: increasing concentrations, single dose, 48 hr
Protocol: (§1) Endogenous MALT1 activity was evaluated by Western blotting for A20, BCL10 and CYLD; and NF-κB activation, by phospho-IκB-α and total IκB-α. Dependence on MALT1 proteolytic activity for proliferation was tested by 50[…]μM Z-VRPR-FMK treatment for 48 hr. […] The U2932 and HLY1 ABC-DLBCL cell lines harbor mutations in TAK1 and A20, which activate NF-κB signaling downstream of MALT1.
(§2) Cell proliferation was determined by ATP quantification using a luminescent method (CellTiter-Glo, Promega, Madison, Wis.) and Trypan blue dye-exclusion (Sigma, St. Louis, Mo.). Cell viability in drug-treated cells was normalized to their respective controls (fractional viability) and results are given as 1-fractional viability. […]
(§3) DLBCL cell lines were grown in exponential growth conditions during the 48 hr of treatment. Cell proliferation was determined by ATP quantification using a luminescent method (CellTiter-Glo, Promega, Madison, Wis.) and Trypan blue dye-exclusion (Sigma, St. Louis, Mo.). Luminescence was measured using the Synergy4 microplate reader (BioTek Instruments, Winooski, Vt.). Standard curves for each cell line were calculated by plotting the cell number (determined by the Trypan blue method) against their luminescence values and number of cells was calculated accordingly. […]

HBL-1 and TMD8 cells = experiment: Trypan blue exclusion and Annexin V+ DAPI- apoptosis over 14 days, ABC-DLBCL lines; format: cell-based, human; settings: treated daily at GI25 and GI50, every 48 hr for 14 days
Protocol: Cell proliferation was examined using the CFSE dilution assay by flow cytometry on viable cells at 48, 72 and 96 h. […] Trypan blue exclusion and apoptosis assessed by Annexin V^+ DAPI^− flow cytometry was measured every 48 hr for a period of 14 days.
Apoptosis was assessed by AnnexinV-APC/DAPI (BD Pharmingen) staining followed by flow cytometry.

Caspase-8 = Caspase-8 (Homo sapiens, UniProt Q14790); experiment: Caspase selectivity; format: biochemical
Caspase-8, sequence (Q14790 217-374 limits assumed): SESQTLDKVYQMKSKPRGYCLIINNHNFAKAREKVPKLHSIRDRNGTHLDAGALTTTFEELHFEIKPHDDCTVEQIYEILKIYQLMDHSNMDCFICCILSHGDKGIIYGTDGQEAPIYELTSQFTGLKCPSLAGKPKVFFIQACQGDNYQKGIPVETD
Caspase-8, sequence (Q14790 385-479 limits assumed): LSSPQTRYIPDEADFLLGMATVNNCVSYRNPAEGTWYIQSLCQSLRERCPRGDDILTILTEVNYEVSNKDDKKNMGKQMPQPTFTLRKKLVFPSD

[2] = test system: ABC-DLBCL cell lines (HBL1 and TMD8); experiment: Caspase-3/7 cleavage assay for apoptosis; format: cell-based, human
[3] = test system: ABC-DLBCL MALT1 independent cell lines U2932 and HLY-1; experiment: Growth inhibition, MALT1 independent ABC-DLBCL cell lines; format: cell-based, human; settings: increasing concentrations, single dose, 48 hr
Protocol: as §1, §2, §3

[4] = biological target: T1, MALT1 active site mutant C464A (Homo sapiens, UniProt Q9UDY8, C464A); experiment: LC-MS covalent modification, active site mutant; format: binding
T1 construct: MALT1 paracaspase domain (329-728) presented a major peak at 55,988.4 Da
T1 sequence (Q9UDY8 329-728 C464A): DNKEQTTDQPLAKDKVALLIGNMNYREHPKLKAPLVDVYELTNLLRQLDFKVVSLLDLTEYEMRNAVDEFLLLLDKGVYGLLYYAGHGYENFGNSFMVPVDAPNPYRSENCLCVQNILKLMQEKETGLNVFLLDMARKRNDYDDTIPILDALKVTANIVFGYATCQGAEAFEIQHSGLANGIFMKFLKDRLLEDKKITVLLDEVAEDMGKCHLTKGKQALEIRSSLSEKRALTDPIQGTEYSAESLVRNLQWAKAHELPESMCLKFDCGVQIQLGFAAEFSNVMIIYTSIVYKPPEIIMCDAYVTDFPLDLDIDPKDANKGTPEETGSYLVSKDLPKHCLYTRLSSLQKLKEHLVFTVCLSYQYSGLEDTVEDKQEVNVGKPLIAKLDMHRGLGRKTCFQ
Protocol: The final results were ranked on the predicted binding free energy and the cluster size for each docking conformation.
HPLC/ESI-MS experiments were carried out on 5 μl sample at 1 mg/ml protein concentration. Separation of proteins was performed on a HP 1100 system (Hewlett Packard, Palo Alto, Calif., USA) employing a 1 mm×150 mm LC Packings column packed with POROS R1/H (Perseptive Biosystems, Foster City, Calif., USA). The column was kept at 80° C. Samples were injected onto the column using a CTC PAL autosampler (CTC, Zwingen Switzerland) fitted with a Valco model C6UW HPLC valve (Valco, Houston, Tex., USA) and a 10 μl injection loop. HPLC was controlled by MassLynx software (Micromass, Manchester, UK). UV detection was performed at 214 nm. Eluent A was water containing 0.05% TFA. Eluent B was a 1:9 mixture of water:acetonitrile containing 0.045% TFA. A gradient from 20% B to 90% B was run in 20 minutes. The flow rate was typically 60 μl/min. The total flow from the LC system was introduced into the UV detection cell prior to introduction in the ESI source. The HPLC system was controlled and the signal from the UV detector was processed using MassLynx software. […] Data were recorded and processed using MassLynx software. […]

c-REL nuclear protein = experiment: c-REL immunofluorescence in paraffinized xenograft tumor sections; format: in vivo, mice; settings: IP 25 mg/kg/day
Text: Animals were sacrificed 24 hr after the fourteenth injection.
Paraffin-embedded tumor xenografts were sectioned, dewaxed and submitted to antigen retrieval. For IF-P, Alexa Fluor-488 conjugated secondary antibodies from Invitrogen where used and cell nuclei where counterstained with DAPI. Fluorescent images were taken using an Axiovert 200M fluorescent microscope (Carl Zeiss Inc., Thornwood, N.Y.). Oberkochen, Germany). For IHC, biotin-conjugated secondary antibodies where used. Then avidin/biotin peroxidase was applied to the slides (Vector Laboratories). Color was developed with diaminobenzoate chromogen peroxidase substrate (Vector) and counterstained with hematoxilin-eosyn. Pictures were obtained using an AxioCam (Carl Zeiss Inc.) camera attached to an AxioSkop II light microscope (Carl Zeiss Inc.). Samples were reviewed by a pathologist.

[5] = biological target: T2, paracaspase domain of MALT1 (residues 329-728) (Homo sapiens, UniProt Q9UDY8); experiment: HSQC NMR binding; settings: HSQC titration
T2 construct: labeled MALT1 (329-728) was expressed in BL21 (DE3) E. coli; made in house; host or cells: E. coli BL21 (DE3)
T2 sequence (Q9UDY8 329-728): as the sequence (Q9UDY8 329-728 C464A) above, with A136C counted along it
Protocol: Uniformly ^15N and ^13C labeled MALT1 (329-728) was expressed in BL21 (DE3) E. coli growing in M9 medium containing 1 g/l [^15N]ammonium chloride and 3 g/l [^13C]glucose (Cambridge Isotope Labs, Andover, Mass.) and purified from E. coli cell lysate as described in (Wiesmann et al., 2012).
Standard 2D ^1H ^13C NMR spectra of MALT1 (329-728) were recorded in samples containing 10.0 mg/ml protein in 50 mM HEPES (pH 7.5), 50 mM NaCl, and 10% D2O. NMR spectroscopy experiments were recorded on Bruker AV 500 MHz spectrometer (Bruker, Billerica, Mass.), at 310K.
Standard 2D ^1H ^15N HSQC spectra of MALT1 (329-728) were recorded in samples containing 70 μM protein in 25 mM Tris pH 7.5, 250 mM NaCl, 5 mM DTT, 10% D2O, 0.02% NaN3, 2% DMSO. HSQCs were run on a 600 MHz Varian (Varian, Palo Alto, Calif.) at 37° C.

COCCOc1nc(-c2ccc(Cl)c(Cl)c2)n(-c2ccc(NC(=O)CCl)cc2)n1 [MI-2]
growth inhibition [1]: selective for MALT1 dependent cell lines
viability and apoptosis (HBL-1 and TMD8 cells): profoundly suppressed
activity against Caspase-8 (Caspase-8): little activity
apoptosis (Caspase-3/7 cleavage) [2]: dose dependent apoptosis within 48 hr
growth inhibition [3]: resistant
covalent binding to MALT1 C464A [4]: markedly reduced covalent binding
c-REL nuclear protein in tumors (c-REL nuclear protein): reduced c-REL nuclear protein
binding by NMR spectroscopy [5]: robust interaction
